Data from the NIST ThermoML archive (doi:10.1021/acs.jced.8b01135).
“And” between values parts separate entries of the source, which are not always exact repeats. Identical values can stand only once.

Columns and labels:
[1] = Liquid; for speed of sound: Frequency=3 MHz, Single path-length method; for mass density: Vibrating tube method; for viscosity: Concentric cylinders viscometry
[2] = xn = mol fraction of the nth substance listed; details: 102 kPa, Liquid, x2 = 0; for speed of sound: Frequency=3 MHz, Single path-length method; for mass density: Vibrating tube method; for viscosity: Concentric cylinders viscometry

CCCC1CCCCC1 [1-cyclohexylpropane]
[1]
Details	mass density, 102 kPa [kg/m3]	speed of sound, 88 kPa [m/s]	speed of sound, 102 kPa [m/s]	viscosity, 102 kPa [mPa·s]
288.15 K	797.42	–	1328.6	–
293.15 K	793.53	1307.7	1307.7	0.981
298.15 K	789.63	–	1287.1	–
303.15 K	785.72	1266.6	1266.6	0.856
313.15 K	777.88	1226.2	1226.2	0.75
323.15 K	770	1186.5	1186.5	0.668
333.15 K	762.09	1147.7	1147.7	0.594

CCCCCCCCCCC1CCCCC1 [decylcyclohexane]
[1], 102 kPa
Details	mass density [kg/m3]	speed of sound [m/s]	viscosity [mPa·s]
288.15 K	821.93	1425.2	–
293.15 K	818.54	1406.4	5.34
298.15 K	815.16	1387.7	–
303.15 K	811.78	1369.1	4.09
313.15 K	805.02	1332.8	3.23
323.15 K	798.26	1297.2	2.6
333.15 K	791.49	1262.7	2.15

CCCCCCCCCCCC [dodecane]
[1], 102 kPa
Details	mass density	speed of sound [m/s]	viscosity [mPa·s]
288.15 K	752.35 kg/m3	1317.2	–
293.15 K	748.72 kg/m3	1297.7	1.49
298.15 K	745.09 kg/m3	1278.2	–
303.15 K	741.46 kg/m3	1259	1.27
313.15 K	734.18 kg/m3 and 734.19 kg/m3	1221.1	1.08
323.15 K	726.88 kg/m3	1184	0.934
333.15 K	719.53 kg/m3	1147.8	0.813

CCCCCCCCCCCC [dodecane] + CCCC1CCCCC1
[2]
Details	mass density [kg/m3]	speed of sound [m/s]	viscosity [mPa·s]
288.15 K	752.35	1317.2	–
293.15 K	748.72	1297.7	1.49
298.15 K	745.09	1278.2	–
303.15 K	741.46	1259	1.27
313.15 K	734.19	1221.1	1.08
323.15 K	726.88	1184	0.934
333.15 K	719.53	1147.8	0.813

CCCCCCCCCCCC [dodecane] + CCCCCC1CCCCC1
[2]
Details	mass density [kg/m3]	speed of sound [m/s]	viscosity [mPa·s]
288.15 K	752.35	1317.2	–
293.15 K	748.72	1297.7	1.49
298.15 K	745.09	1278.2	–
303.15 K	741.46	1259	1.27
313.15 K	734.19	1221.1	1.08
323.15 K	726.88	1184	0.934
333.15 K	719.53	1147.8	0.813

CCCCCCCCCCCC [dodecane] + CCCCCCC1CCCCC1
[2]
Details	mass density [kg/m3]	speed of sound [m/s]	viscosity [mPa·s]
288.15 K	752.35	1317.2	–
293.15 K	748.72	1297.7	1.49
298.15 K	745.09	1278.2	–
303.15 K	741.46	1259	1.27
313.15 K	734.19	1221.1	1.08
323.15 K	726.88	1184	0.934
333.15 K	719.53	1147.8	0.813

CCCCCCCCCCCC [dodecane] + CCCCCCCC1CCCCC1
[2]
Details	mass density [kg/m3]	speed of sound [m/s]	viscosity [mPa·s]
288.15 K	752.35	1317.2	–
293.15 K	748.72	1297.7	1.49
298.15 K	745.09	1278.2	–
303.15 K	741.46	1259	1.27
313.15 K	734.19	1221.1	1.08
323.15 K	726.88	1184	0.934
333.15 K	719.53	1147.8	0.813
